Test results: article PMC11247486, “Improving the In Vivo Stability of [^52Mn]Mn(II) Complexes with 18-Membered Macrocyclic Chelators for PET Imaging” (Journal of Medicinal Chemistry, 2024)
Where two headings read alike, the source gives them in different places.

Key:
[1] = cited from earlier work
[2] = Transmetalation (dissociation) kinetics of the Mn(II) complexes with Cu2+; type: physicochemical; details: 0.15 M NaCl, 25 °C
Method: There is a wide consensus among the coordination chemistry community that kinetic inertness is more important for the safe use of metal complexes for imaging applications than thermodynamic stability.[8],[49],[50] Thus, we conducted a detailed investigation of the transmetalation kinetics of the Mn-PYAN and Mn-CHXPYAN complexes, by following their exchange reactions with Cu^2+ in the pH range of 2.5–4.5 (eq 3). [drawing 3] 3
All reactions were carried out in the presence of a large excess of Cu^2+ in order to guarantee the pseudo-first-order kinetic conditions. The transmetalation of Mn-PYAN in the pH range ∼2.0–4.5 is very fast, and thus the rates of the reactions were measured using the stopped-flow technique. Conversely, the exchange reactions of the Mn-CHXPYAN complex are slow and could be studied by using conventional methods. The transmetalation reactions of Mn-PYAN and Mn-CHXPYAN were monitored by following the formation of the corresponding Cu(II) complexes at 295 nm.
The kd values increase upon increase in [H^+] and are independent of the concentration of Cu^2+ as it was found for Mn-PCTA, Mn-PC3AM, and Mn-bispidine complexes.[49],[51] […] The increase in the kd values with increasing H^+ concentration can be interpreted in terms of the extremely slow spontaneous (k0, eq 4) and the proton-assisted (k*[Mn(HL), eq 6) dissociation of Mn(II) complexes. The saturation behavior of the plots of kd versus [H^+] (Figure 5) is characteristic for the equilibrium formation and the accumulation of the *[Mn(HL)] intermediate characterized by the *KH protonation constant (eq 5). The analysis of the rate constants obtained for Mn-CHXPYAN indicates a second-order dependence of kd on [H^+], which can be explained by the proton-assisted dissociation of the *[Mn(HL)] intermediate (k^H*[Mn(HL)], eq 7). [drawing 4] 4 [drawing 5] 5 [drawing 6] 6 [drawing 7] 7
In the presence of excess of the exchanging ion, the transmetalation can be treated as a pseudo-first-order process, and the rate of reactions can be expressed with eq 8, where kd is a pseudo-first-order rate constant and [MnL]t is the total concentration of the complex. [drawing 8] 8
Through consideration of all the possible pathways, the rate of the transmetalation of Mn-PYAN and Mn-CHXPYAN with Cu^2+ can be expressed by eq 9 [drawing 9] 9 Considering the total concentration of the Mn(II) complex ([MnL]t = [MnL] + [*Mn(HL)], as well as the equation defining the protonation constant for the formation of the *[Mn(HL)] intermediate (eq 5) and eq 8, the pseudo-first-order rate constant can be expressed as follows [drawing 10] 10 where k1 = k*[Mn(HL)] × *KH and k2 = k^H*[Mn(HL)] × *KH. The rate and protonation constants characterizing the transmetalation of Mn-PYAN and Mn-CHXPYAN with Cu^2+ have been calculated by fitting the kd values presented in Figure 5 to eq 10 and the values obtained are compared with the corresponding values of Mn-DOTA, Mn-DO3A, Mn-PCTA, Mn-PC3AM^H, and Mn-bispidine in Table 3.
Rates of the metal exchange reactions of Mn-PYAN and Mn-CHXPYAN with Cu^2+ were measured by spectrophotometry by following the formation of the related Cu(II) complexes at 295 nm with an Applied Photophysics DX-17MV stopped-flow instrument and PerkinElmer Lambda 365 UV–vis spectrophotometer using 1.0 cm cells, respectively. The concentration of Mn-PYAN and Mn-CHXPYAN was 1.0 × 10^–4 M, whereas the concentration of Cu^2+ was 10 and 20 times higher in order to guarantee pseudo-first-order conditions. The temperature was maintained at 25 °C and the ionic strength of the solutions was kept constant with 0.15 M NaCl. The exchange rates were studied in the pH range of ca. 2.0–4.5. To keep the pH values constant, monochloroacetic acid (pH range 2.0–3.3), 1,4-dimethylpiperazine (pH range 3.3–4.1), and N-methylpiperazine (pH range 4.1–4.5) buffers were used (0.01 M). […]

[3] = cited from earlier work; remark: listed apart in the source
[4] = pH-potentiometric titrations, ligand protonation constants; type: physicochemical; details: 0.15 M NaCl, 25°C
Method: Chelator protonation constants (log Ki^H) defined by eq 1 were determined using pH-potentiometric titrations, which afforded four protonation constants for each chelator attributed to the protonation of the amine N atoms (Table 2, and standard deviations are shown in parentheses). [drawing 1] 1 where i = 1, 2...4. The first two protonation constants adopt nearly identical values for both chelators, while the third and fourth protonation constants are much lower for CHXPYAN than for PYAN, which is consistent with the results obtained by Jackels et al.[25] The high rigidity of CHXPYAN likely forces the protonated amines to be placed at a shorter distance than in PYAN, reducing the values of log K3^H and log K4^H for the cyclohexyl derivative due to electrostatic effects. […] The structurally related 18-membered macrocycle 18-ane-N6 is characterized by a higher basicity compared with PYAN and CHXPYAN, as expected due to the increased number of amine N atoms and its higher flexibility.[43]
(§1) The protonation constants of PYAN and CHXPYAN and the stability constants of Mn(II) complexes were determined by pH-potentiometric titrations. The metal-to-ligand concentration ratio was 1:1 (the concentration of the ligand was generally 0.002 M). For the pH measurements and titrations, a Metrohm 888 Titrando titration workstation and Metrohm-6.0234.110 combined electrode was used. Equilibrium measurements were carried out at a constant ionic strength (0.15 M NaCl) in 6 mL samples at 25 °C. The solutions were stirred, and N2 was bubbled through them. The titrations were made in the pH range of 1.7–12.0. KH-phthalate (pH = 4.005) and borax (pH = 9.177) buffers were used to calibrate the pH meter. For the calculation of [H^+] from the measured pH values, the method proposed by Irving et al. was used as follows.[59] A 0.01 M HCl solution was titrated with a standardized NaOH solution at 0.15 M NaCl ionic strength. The differences (A) between the measured (pHread) and calculated pH (−log[H^+]) values were used to obtain the equilibrium H^+ concentration from the pH values measured in the titration experiments (A = 0.04). For the equilibrium calculations, the stoichiometric water ionic product (pKw) was also needed to calculate the [OH^–] values under basic conditions. The VNaOH – pHread data pairs of the HCl–NaOH titration obtained in the pH range of 10.5–12.0 were used to calculate the pKw value (pKw = 13.77). The protonation and stability constants were calculated with the PSEQUAD program.[60]

[5] = pH-potentiometric titrations, stability constants of the Mn(II) complexes; type: physicochemical; details: 0.15 M NaCl, 25°C
Method: The stability constants of the Mn(II) complexes with PYAN and CHXPYAN defined by eq 2 were also determined through pH-potentiometric titrations. [drawing 2] 2
as §1

[6] = 1H NMR relaxometry (relaxivity as a function of pH); type: physicochemical; details: pH 3, 61 MHz, 25 °C, after dissociation of the complexes
Text: The studies reported by Branco assumed the formation of a protonated [Mn(HL)]^3+ species for the Mn-PYAN complex characterized by protonation constant log KMnLH = 5.19 (KMnLH = [MnHL]/[MnL] × [H^+]).[42] However, our pH-potentiometric data could be fitted very well without considering the formation of protonated species or hydroxo-complexes. In order to confirm that the equilibrium model used to fit the pH-potentiometric data was correct, we measured the relaxivity (r1p) of aqueous solutions of the complexes as a function of pH (Figure 4). Relaxivity measures the ability of a paramagnetic solute to enhance the longitudinal relaxation rate of solvent water molecules, normalized for a 1 mM concentration of the paramagnetic ion.[45] The r1p values measured around neutral pH values (0.83 and 1.40 mM^–1 s^–1 at 61 MHz and 25 °C for Mn-PYAN and Mn-CHXPYAN, respectively) are typical of complexes that lack one or more water molecules in the inner coordination sphere, the observed relaxivity being the result of the outer-sphere contribution.[46] Relaxivity is fairly constant in the pH range of 6–9 but increases below pH ∼ 6 due to complex dissociation, reaching a relaxivity of 6.00 mM^–1 s^–1 at pH 3, 61 MHz, and 25 °C that is characteristic of the [Mn(H2O)6]^2+ complex.[47] The relaxivity profile matches the speciation diagrams calculated using the equilibrium constants obtained by pH potentiometry very well, which provides support for the equilibrium model used to fit the potentiometric data. It is worth noting that complex dissociation takes place at a lower pH for Mn-CHXPYAN than for Mn-PYAN, as expected, considering their pMn values.
The relaxivity values were calculated from the longitudinal relaxation time of H2O protons (T1) measured at 61 MHz on a Stelar relaxometer connected to a Bruker WP80 NMR electromagnet adapted to variable-field measurements (15–80 MHz proton Larmor frequency). […] The longitudinal relaxation time was measured with the “inversion recovery” method (180°–τ–90°) by using 12 different τ values with a typical 90° pulse width of 10.7 μs, 4 scans. […]

Row | kd at pH = 7.4 ([2]; Mn(II) complex of the chelator) | log*KH ([2]; protonation constant of the *[Mn(HL)] intermediate) | log K1^H [4] | log K2^H [4] | log K3^H [4] | log K4^H [4] | pMn ([5]; pMn = −log[Mn]free when [Mn^2+] = [L] = 10 μM at pH = 7.4) | log KMnL ([5]; stability constant of the Mn(II) complex) | relaxivity [6] [mM^–1 s^–1] | Structure (SMILES) | log K1^H ([1]; 0.1 M KNO3) | log K2^H ([1]; 0.1 M KNO3) | log K3^H ([1]; 0.1 M KNO3) | log K4^H ([1]; 0.1 M KNO3) | log K1^H ([1]; 0.2 M KCl) | log K2^H ([1]; 0.2 M KCl) | log K3^H ([1]; 0.2 M KCl) | log K4^H ([1]; 0.2 M KCl) | k1 ([2]; Mn(II) complex of the chelator) [M^–1 s^–1] | log KMnL ([3]; 0.1 M KNO3) | log KMnL ([3]; 0.2 M KCl)
1 | 3.3 × 10^–5 s^–1 | 2.23 (4) | 9.02(1) | 8.27(1) | 6.06(1) | 5.18(2) | 7.18 | 11.93(3) | – | c1cc2nc(c1)CNCCNCc1cccc(n1)CNCCNC2 [PYAN, 3,6,10,13-tetraaza-1,8(2,6)-dipyridinacyclotetradecaphane] | 8.99 | 8.22 | 6.03 | 5.34 | 9.13 | 8.32 | 6.12 | 5.24 | 827 ± 54 | 11.79 | 12.5
2 | – | – | – | – | – | – | – | – | 6.00 | O.O.O.O.O.O.[Mn+2] [[Mn(H2O)6]^2+] | – | – | – | – | – | – | – | – | – | – | –
